Measurements as given in ChEMBL document CHEMBL4706683 (J Med Chem, 2021).
The source made the active and inactive calls. No cut-off for these calls is given here.

How the values were obtained:
Plasmodium falciparum [1] = experiment: Antiplasmodial activity against synchronized ring stage Plasmodium falciparum 3D7 infected in human erythrocytes assessed as reduction in parasite growth incubated for 72 hrs by Giemsa staining based light microscopic method; assay type: functional, organism-based; conditions: 3D7, Erythrocyte
Plasmodium falciparum [2] = experiment: Antiplasmodial activity against synchronized ring stage Plasmodium falciparum Dd2 infected in human erythrocytes assessed as reduction in parasite growth incubated for 72 hrs by Giemsa staining based light microscopic method; assay type: functional, organism-based; conditions: Dd2, Erythrocyte
HepG2 = experiment: Cytotoxicity against human HepG2 cells assessed as reduction in cell viability incubated for 72 hrs by cell titer glo assay; assay type: cell-based; conditions: HepG2, 72 h
HEK-293T = experiment: Cytotoxicity against human HEK293T cells assessed as reduction in cell viability incubated for 72 hrs by cell titer glo assay; assay type: cell-based
[3] = Selectivity index, ratio of IC50 for cytotoxicity against human HepG2 cells assessed to IC50 for antiplasmodial activity against synchronized ring stage Plasmodium falciparum 3D7 infected in human erythrocytes; assay type: toxicity, cell-based; conditions: read-out: Ratio IC50
[4] = Selectivity index, ratio of IC50 for cytotoxicity against human HEK293T cells assessed to IC50 for antiplasmodial activity against synchronized ring stage Plasmodium falciparum 3D7 infected in human erythrocytes; assay type: toxicity, cell-based; conditions: read-out: Ratio IC50
Plasmodium falciparum [5] = experiment: Antiplasmodial activity against Plasmodium falciparum GB4 infected in human erythrocytes assessed as reduction in parasite growth incubated for 72 hrs by Giemsa staining based light microscopic method; assay type: functional, organism-based; conditions: GB4, Erythrocyte
Plasmodium falciparum [6] = experiment: Antiplasmodial activity against Plasmodium falciparum C2A infected in human erythrocytes assessed as reduction in parasite growth incubated for 72 hrs by Giemsa staining based light microscopic method; assay type: functional, organism-based; conditions: Erythrocyte
Plasmodium falciparum [7] = experiment: Antiplasmodial activity against Plasmodium falciparum CP286 infected in human erythrocytes assessed as reduction in parasite growth incubated for 72 hrs by Giemsa staining based light microscopic method; assay type: functional, organism-based; conditions: CP286, Erythrocyte
Plasmodium falciparum [8] = experiment: Antiplasmodial activity against artemisinin-resistant Plasmodium falciparum 6218 infected in human erythrocytes assessed as reduction in parasite growth incubated for 72 hrs by Giemsa staining based light microscopic method; assay type: functional, organism-based; conditions: Plasmodium falciparum, 6218, Erythrocyte
Plasmodium falciparum [9] = experiment: Antiplasmodial activity against artemisinin-resistant ring stage Plasmodium falciparum 6320 infected in human erythrocytes assessed as reduction in parasite growth incubated for 72 hrs by Giemsa staining based light microscopic method; assay type: functional, organism-based; conditions: Plasmodium falciparum, 6320, Erythrocyte
[10] = Half life in mouse liver microsomes incubated upto 45 mins in presence of NADPH by LC-MS/MS analysis; assay type: ADME, Microsome
[11] = Clearance in mouse liver microsomes incubated upto 45 mins in presence of NADPH by LC-MS/MS analysis; assay type: ADME, Microsome; conditions: read-out: CLH
[12] = Toxicity in Balb/c mouse infected with blood stage Plasmodium yoelii assessed as animal death at 60 mg/kg, ip QD for 5 consecutive days and measured on day 30; assay type: organism-based; conditions: in vivo, 120 h, time 5 day
Plasmodium yoelii = experiment: Antiplasmodial activity against blood stage Plasmodium yoelii infected in Balb/c mouse assessed as reduction in parasitemia at 60 mg/kg, ip QD for 5 consecutive days and measured on day 30 by microscopic analysis; assay type: functional, organism-based; conditions: time 5.0 day

| Compound | IC50 (Plasmodium falciparum [1]) [µM] | IC50 (Plasmodium falciparum [2]) [µM] | IC50 (HepG2) [µM] | IC50 (HEK-293T) [µM] | selectivity ratio [3] | selectivity ratio [4] | IC50 (Plasmodium falciparum [5]) [µM] | IC50 (Plasmodium falciparum [6]) [µM] | IC50 (Plasmodium falciparum [7]) [µM] | IC50 (Plasmodium falciparum [8]) [µM] | IC50 (Plasmodium falciparum [9]) [µM] | half-life [10] [h] | CLint scaled [11] [L/h/kg] | Activity [12] | Activity (Plasmodium yoelii) |
| --- | --- | --- | --- | --- | --- | --- | --- | --- | --- | --- | --- | --- | --- | --- | --- |
| O=C(NO)c1cnc(N2CCC3(CCN(Cc4ccc5ccc6cccc7ccc4c5c67)C3)CC2)nc1 | 0.0264 | 0.0195 | 1.68 | 1.97 | 64 | 74 |  |  |  |  |  |  |  |  |  |
| O=C(NO)c1cnc(N2CCC3(CCN(Cc4ccccn4)C3)CC2)nc1 | 0.0162 | 0.0233 | 1.3 | 1.72 | 80 | 106 |  |  |  |  |  |  |  |  |  |
| O=C(NO)c1cnc(N2CCC3(CCN(Cc4ccncc4)C3)CC2)nc1 | 0.0169 | 0.0228 | 3.25 | 3.47 | 193 | 206 |  |  |  |  |  |  |  |  |  |
| C[C@H]1[C@@H](O)O[C@@H]2O[C@@]3(C)CC[C@H]4[C@H](C)CC[C@@H]1[C@@]24OO3 [ARTENIMOL] | 0.0027 | 0.00268 |  |  |  |  | 0.0032 | 0.0037 | 0.0056 | 0.0052 | 0.0059 |  |  |  |  |
| O=C(NO)c1cnc(N2CCC3(CCN(Cc4ccc(-c5ccccc5)cc4)C3)CC2)nc1 | 0.0345 | 0.0461 | 0.641 | 0.732 | 19 | 21 |  |  |  |  |  |  |  |  |  |
| O=C(NO)c1cnc(N2CCC3(CCN(Cc4coc5ccccc45)C3)CC2)nc1 | 0.0136 | 0.0109 | 0.886 | 0.576 | 65 | 42 |  |  |  |  |  |  |  |  |  |
| Cn1nc(CN2CCC3(CCN(c4ncc(C(=O)NO)cn4)CC3)C2)c2ccccc21 | 0.0048 | 0.0049 | 0.139 | 0.395 | 29 | 82 |  |  |  |  |  |  |  |  |  |
| O=C(NO)c1cnc(N2CCC3(CCN(Cc4cnc5ccccc5c4)C3)CC2)nc1 | 0.00554 | 0.0027 | 0.564 | 0.145 | 102 | 26 |  |  |  |  |  |  |  |  |  |
| O=C(NO)c1cnc(N2CCC3(CCN(Cc4cccc5ccncc45)C3)CC2)nc1 | 0.0081 | 0.0069 | 0.415 | 0.207 | 51 | 26 |  |  |  |  |  |  |  |  |  |
| O=C(NO)c1cnc(N2CCC3(CCN(Cc4cncc5ccccc45)C3)CC2)nc1 | 0.0115 | 0.0079 | 0.102 | 0.423 | 9 | 37 |  |  |  |  |  |  |  |  |  |
| O=C(NO)c1cnc(N2CCC3(CCN(CC4CCCCC4)C3)CC2)nc1 | 0.0102 | 0.0147 | 1.63 | 1.25 | 160 | 122 |  |  |  |  |  |  |  |  |  |
| O=C(NO)c1cnc(N2CCC3(CCN(Cc4cccnc4)C3)CC2)nc1 | 0.0204 | 0.0179 | 1.83 | 2.13 | 90 | 104 |  |  |  |  |  |  |  |  |  |
| O=C(NO)c1cnc(N2CCC3(CCN(CC4CCCC4)C3)CC2)nc1 | 0.0136 | 0.0127 | 0.63 | 1.23 | 46 | 90 |  |  |  |  |  |  |  |  |  |
| O=C(NO)c1cnc(N2CCC3(CCN(Cc4ccc5ccccc5c4)C3)CC2)nc1 | 0.0041 | 0.00316 | 0.228 | 0.484 | 56 | 118 |  |  |  |  |  |  |  |  |  |
| O=C(NO)c1cnc(N2CCC3(CCN(Cc4cc5ccccc5c5ccccc45)C3)CC2)nc1 | 0.0101 | 0.0085 | 0.204 | 0.482 | 20 | 48 |  |  |  |  |  |  |  |  |  |
| O=C(NO)c1cnc(N2CCC3(CCN(Cc4csc5ccccc45)C3)CC2)nc1 | 0.0043 | 0.0036 | 0.079 | 0.109 | 18 | 25 |  |  |  |  |  |  |  |  |  |
| O=C(NO)c1cnc(N2CCC3(CCN(Cc4cccc5ncccc45)C3)CC2)nc1 | 0.0116 | 0.0092 | 0.74 | 0.559 | 64 | 48 |  |  |  |  |  |  |  |  |  |
| O=C(NO)c1cnc(N2CCC3(CCN(Cc4cccc5ccccc45)C3)CC2)nc1 | 0.0044 | 0.0067 | 0.091 | 0.154 | 21 | 35 |  |  |  |  |  |  |  |  |  |
| O=C(NO)c1cnc(N2CCC3(CCN(Cc4ccnc5ccccc45)C3)CC2)nc1 | 0.0146 | 0.0147 | 0.482 | 0.351 | 33 | 24 |  |  |  |  |  |  |  |  |  |
| O=C(NO)c1cnc(N2CCC3(CCN(Cc4ccsc4)C3)CC2)nc1 | 0.0231 | 0.0118 | 1.06 | 0.831 | 46 | 36 |  |  |  |  |  |  |  |  |  |
| O=C(NO)c1cnc(N2CCC3(CCN(Cc4cccc5cccnc45)C3)CC2)nc1 | 0.008 | 0.0034 | 0.221 | 0.351 | 28 | 44 |  |  |  |  |  |  |  |  |  |
| O=C(NO)c1cnc(N2CCC3(CCN(Cc4ccoc4)C3)CC2)nc1 | 0.0353 | 0.0263 | 1.05 | 1.63 | 30 | 46 |  |  |  |  |  |  |  |  |  |
| O=C(NO)c1cnc(N2CCC3(CCN(Cc4ccccc4)C3)CC2)nc1 | 0.0068 | 0.0076 | 0.217 | 0.375 | 32 | 55 |  |  |  |  |  |  |  |  |  |
| Cl.Cn1cc(CN2CCC3(CCN(c4ncc(C(=O)NO)cn4)CC3)C2)c2ncccc21 | 0.00322 | 0.0043 | 0.855 | 0.755 | 266 | 235 | 0.0037 | 0.005 | 0.0055 | 0.00404 | 0.0038 | 2.25 | 2.43 | Non-Toxic | inactive |
| Cl.Cn1cc(CN2CCC3(CCN(c4ncc(C(=O)NO)cn4)CC3)C2)c2cccnc21 | 0.003 | 0.0034 | 0.281 | 0.399 | 93 | 132 | 0.0064 | 0.00618 | 0.0068 | 0.005 | 0.0052 | 2.75 | 1.98 | Non-Toxic | inactive |
| O=C(NO)c1cnc(N2CCC3(CCN(Cc4c5ccccc5cc5ccccc45)C3)CC2)nc1 | 0.0223 | 0.0165 | 0.165 | 0.39 | 7 | 18 |  |  |  |  |  |  |  |  |  |
| Cl.Cn1cc(CN2CCC3(CCN(c4ncc(C(=O)NO)cn4)CC3)C2)c2cnccc21 | 0.004 | 0.0049 | 0.982 | 1.46 | 248 | 370 | 0.0095 | 0.0117 | 0.0111 | 0.0087 | 0.0084 | 2.09 | 2.61 | Toxic |  |
| O=C(NO)c1cnc(N2CCC3(CCN(Cc4ccc5ccccc5n4)C3)CC2)nc1 | 0.0069 | 0.00298 | 0.32 | 0.393 | 47 | 57 |  |  |  |  |  |  |  |  |  |
| Cl.Cn1cc(CN2CCC3(CCN(c4ncc(C(=O)NO)cn4)CC3)C2)c2ccccc21 | 0.0028 | 0.0025 | 0.072 | 0.06 | 26 | 22 | 0.0037 | 0.00487 | 0.0039 | 0.0035 | 0.0041 | 0.214 | 25.4 | Toxic |  |
| O=C(NO)c1cnc(N2CCC3(CCN(Cc4cnc5ccccn45)C3)CC2)nc1 | 0.0144 | 0.0185 | 1.96 | 3.53 | 136 | 245 |  |  |  |  |  |  |  |  |  |
